# Test system: CHD (death from CHD, nonfatal MI, or revascularization)
# Test: WOSCOPS: SNP by pravastatin treatment interaction, logistic regression (synergy index), CHD endpoint
# Type: in vivo, human
# Conditions: for OR (synergy index), WOSCOPS, Prava vs Placebo: CHD endpoint; for OR (synergy index): WOSCOPS
# Source text: CARE was a secondary prevention trial and WOSCOPS was a primary prevention trial.
# The CHD endpoint was defined in the analyses herein of CARE as a composite endpoint of fatal CHD, definite non-fatal MI, or revascularization, and was defined in the analyses herein of WOSCOPS as a composite endpoint of death from CHD, nonfatal MI, or revascularization. In both the CARE and WOSCOPS analyses herein, the CVD endpoint was defined as a composite endpoint of CHD or stroke. […] Revascularization, which can include percutaneous transluminal coronary angioplasty (PTCA), stent placement, and coronary artery bypass graft (CABG), are medical interventions that indicate the presence of CHD.
# Cohort and case-only study designs were used to identify SNPs associated with response to statin treatment.
# For each SNP, a logistic regression model having treatment status as the dependent variable and SNP as the independent predictor variable was performed, with terms for age, sex and race included in the model as covariates. The anti-log of the regression coefficient corresponding to the SNP is an estimate of the synergy index (SI) (Davis et al., “Imputing gene-treatment interactions when the genotype distribution is unknown using case-only and putative placebo analyses-a new method for the Genetics of Hypertension Associated Treatment (GenHAT) study”, Statistics in Medicine 23: (2004), pages 2413-2427). The SI is a ratio of odds ratios: for example in the CARE and WOSCOPS studies, the SI represents the factor by which the odds-ratio of statin treatment, compared with placebo, among major homozygous individuals is multiplied by in order to obtain the odds-ratio of treatment vs. placebo among heterozygous individuals; and multiplied by a second time to obtain the odds-ratio of treatment vs. placebo in minor homozygous individuals. The case-only study design results in a valid estimate of the SI under the assumption that genotype and treatment are independent in the population. In a randomized clinical trial, genotype and treatment are independent by design. The p-value for the regression coefficient corresponding to the SNP results from a test of the null hypothesis that the regression coefficient is equal to zero (SI is equal to one) and thus small p-values indicate the SI is unlikely equal to one and that the effect of treatment likely differs by genotype. […]
smiles,measurement,setting,value
"CC[C@H](C)C(=O)O[C@H]1C[C@H](O)C=C2C=C[C@H](C)[C@H](CC[C@@H](O)C[C@@H](O)CC(=O)O)[C@H]21 [Pravastatin, pravastatin]","OR (synergy index), WOSCOPS, Prava vs Placebo","SNP rs198462 (A1 G, A2 A), rec model, Caseonly",2.12
same,"OR (synergy index), WOSCOPS, Prava vs Placebo","SNP rs198476 (A1 G, A2 A), rec model, cohort",1.61
same,"OR (synergy index), WOSCOPS, Prava vs Placebo","SNP rs471579 (A1 A, A2 C), add model, Caseonly",1.62
same,"OR (synergy index), WOSCOPS, Prava vs Placebo","SNP rs1324012 (A1 A, A2 G), add model, Caseonly",0.60
same,"OR (synergy index), WOSCOPS, Prava vs Placebo","SNP rs1917527 (A1 A, A2 C), rec model, Caseonly",0.73
same,"OR (synergy index), WOSCOPS, Prava vs Placebo","SNP rs7873371 (A1 A, A2 G), add model, Caseonly",1.59
same,OR (synergy index),"rs992695, Imputed, allele (A1) C, model ADD, NMISS 431",0.7364
same,OR (synergy index),"rs992695, Imputed, allele (A1) C, model DOM, NMISS 431",0.6065
same,OR (synergy index),"rs9881685, Imputed, allele (A1) A, model ADD, NMISS 431",0.4853
same,OR (synergy index),"rs9881685, Imputed, allele (A1) A, model DOM, NMISS 431",0.4903
same,OR (synergy index),"rs9936999, Imputed, allele (A1) G, model DOM, NMISS 249",1.779
same,WOSCOPS OR,"rs1948, source CaseOnly, model dom, endpoint CHD",1.96
same,WOSCOPS OR,"rs198476, Source cohort",1.61
same,WOSCOPS OR,"rs238272, source CaseOnly, model add, endpoint CHD",1.46
same,WOSCOPS OR,"rs264122, Source cohort",0.66
same,OR (synergy index),"rs483159 allele T, DOM model, Imputed",1.412
same,OR (synergy index),"rs489441 allele G, ADD model, Imputed",1.6
same,OR (synergy index),"rs489441 allele G, DOM model, Imputed",1.651
same,WOSCOPS OR,"rs694780, Source caseonly",0.62
same,WOSCOPS OR,"rs842796, source CaseOnly, model dom, endpoint CHD",1.38
same,WOSCOPS OR,"rs886469, source CaseOnly, model dom, endpoint CHD",0.55
same,WOSCOPS OR,"rs912366, source CaseOnly, model dom, endpoint CHD",1.79
same,WOSCOPS OR,"rs969356, source CaseOnly, model dom, endpoint CHD",0.54
same,WOSCOPS OR,"rs1009748, Source cohort",1.35
same,WOSCOPS OR,"rs1015199, Source caseonly",1.66
same,WOSCOPS OR,"rs1190706, Source cohort",0.70
same,WOSCOPS OR,"rs1336400, Source caseonly",1.35
same,WOSCOPS OR,"rs1538185, source cohort, model dom, endpoint CHD",1.41
same,WOSCOPS OR,"rs1544214, source CaseOnly, model add, endpoint CHD",1.35
same,WOSCOPS OR,"rs1615197, source CaseOnly, model dom, endpoint CHD",2.25
same,WOSCOPS OR,"rs1705244, source CaseOnly, model dom, endpoint CHD",0.52
same,WOSCOPS OR,"rs1864924, source CaseOnly, model add, endpoint CHD",1.36
same,WOSCOPS OR,"rs1877986, source cohort, model dom, endpoint CHD",0.71
same,WOSCOPS OR,"rs1884897, source CaseOnly, model rec, endpoint CHD",1.78
same,WOSCOPS OR,"rs2008165, source cohort, model add, endpoint CHD",0.62
same,WOSCOPS OR,"rs2069542, source CaseOnly, model add, endpoint CHD",1.49
same,WOSCOPS OR,"rs2104506, source CaseOnly, model add, endpoint CHD",0.65
same,WOSCOPS OR,"rs2108425, Source caseonly",0.62
same,WOSCOPS OR,"rs2263901, source CaseOnly, model add, endpoint CHD",1.57
same,WOSCOPS OR,"rs2263920, source CaseOnly, model rec, endpoint CHD",0.41
same,WOSCOPS OR,"rs2265346, source CaseOnly, model dom, endpoint CHD",0.42
same,WOSCOPS OR,"rs2273816, source CaseOnly, model add, endpoint CHD",1.69
same,WOSCOPS OR,"rs2274473, source CaseOnly, model dom, endpoint CHD",0.48
same,WOSCOPS OR,"rs2327412, Source caseonly",1.41
same,WOSCOPS OR,"rs2418412, source cohort, model rec, endpoint CHD",1.58
same,WOSCOPS OR,"rs2616548, Source caseonly",1.37
same,WOSCOPS OR,"rs2648694, Source caseonly",2.29
same,WOSCOPS OR,"rs2655222, Source caseonly",0.20
same,WOSCOPS OR,"rs2941528, source CaseOnly, model add, endpoint CHD",0.58
same,WOSCOPS OR,"rs2993156, Source caseonly",0.76
same,WOSCOPS OR,"rs3732788, source CaseOnly, model add, endpoint CHD",0.44
same,WOSCOPS OR,"rs3759607, source CaseOnly, model dom, endpoint CHD",1.73
same,WOSCOPS OR,"rs3763978, Source cohort",0.68
same,WOSCOPS OR,"rs3998860, source CaseOnly, model add, endpoint CHD",0.70
same,WOSCOPS OR,"rs4240808, Source caseonly",0.61
same,WOSCOPS OR,"rs4242281, Source caseonly",1.46
same,OR (synergy index),"rs4315598 allele T, ADD model, Imputed",1.407
same,OR (synergy index),"rs4315598 allele T, REC model, Imputed",1.414
same,OR (synergy index),"rs4321395 allele A, DOM model, Imputed",0.5278
same,OR (synergy index),"rs4321596 allele T, REC model, Genotyped",3.01
same,OR (synergy index),"rs4324417 allele T, DOM model, Imputed",1.541
same,OR (synergy index),"rs4328619 allele G, DOM model, Genotyped",0.6446
same,OR (synergy index),"rs4338909 allele T, ADD model, Imputed",1.42
same,OR (synergy index),"rs4370878 allele G, DOM model, Imputed",1.497
same,OR (synergy index),"rs4379434 allele T, DOM model, Genotyped",1.603
same,OR (synergy index),"rs4416407 allele T, DOM model, Imputed",1.502
same,OR (synergy index),"rs4417899 allele C, REC model, Imputed",0.6657
same,WOSCOPS OR,"rs4420312, Source caseonly",0.64
same,OR (synergy index),"rs4442732 allele A, ADD model, Imputed",0.7543
same,OR (synergy index),"rs4444612 allele G, ADD model, Imputed",1.407
same,OR (synergy index),"rs4444612 allele G, REC model, Imputed",1.414
same,OR (synergy index),"rs4450660 allele C, DOM model, Imputed",1.776
same,OR (synergy index),"rs4509702 allele C, DOM model, Imputed",1.497
same,OR (synergy index),"rs4533145 allele T, DOM model, Imputed",0.6617
same,OR (synergy index),"rs4557006 allele A, DOM model, Imputed",0.5409
same,OR (synergy index),"rs4570530 allele C, DOM model, Imputed",1.497
same,OR (synergy index),"rs4615971 allele C, DOM model, Imputed",1.474
same,OR (synergy index),"rs4628119 allele A, DOM model, Imputed",0.5304
same,OR (synergy index),"rs4664443 allele G, ADD model, Imputed",0.6931
same,WOSCOPS OR,"rs4682522, source CaseOnly, model dom, endpoint CHD",0.49
same,OR (synergy index),"rs4688259 allele T, DOM model, Imputed",1.502
same,OR (synergy index),"rs4688632 allele G, REC model, Imputed",0.6718
same,OR (synergy index),"rs4695284 allele A, ADD model, Imputed",1.566
same,OR (synergy index),"rs4700302 allele A, ADD model, Imputed",0.5418
same,OR (synergy index),"rs4702720 allele A, ADD model, Imputed",0.7075
same,OR (synergy index),"rs4702720 allele A, DOM model, Imputed",0.7149
same,OR (synergy index),"rs4714484 allele A, ADD model, Imputed",0.5609

# Reference: US10563263B2, “Genetic polymorphisms associated with statin response and cardiovascular diseases, methods of detection and uses thereof” (CELERA CORPORATION, priority 2010, dated 2020)
